Assay results taken from patent publication US12662479B2 (Foghorn Therapeutics Inc., priority 2020, dated 2026).

Experiments:
[1] = target: T1, HiBit-BRM fusion protein (Homo sapiens, UniProt P51531); assay: HiBiT-BRM cell-based degradation assay (Nano-Glo HiBiT Lytic Detection, 24 h); conditions: HeLa cells expressing HiBiT-BRM; for DC50: read-out: BRM HiBit Degradation IC50; for BRM HiBit Degradation Maximum measured: top dose 30 μM
T1 construct: expressed in transfected cells
Protocol: (§1) Procedure: A stable HeLa cell line expressing HiBiT-BRM was generated. On day 0, 5000 cells were seeded in 40 μL of media into each well of 384-well cell culture plates. On day 1, cells were treated with 120 nL DMSO or 120 nL of 3-fold serially DMSO-diluted compounds (10 points in duplicate with 30 μM as final top dose). Subsequently plates were incubated for 24 h in a standard tissue culture incubator and equilibrated at room temperature for 15 minutes. Nano-Glo HiBiT Lytic Detection System (Promega N3050) reagent was freshly prepared and 20 ul was added to each well. Upon addition of this LgBit-containing reagent, the HiBiT and LgBiT proteins associate to form the luminescent NanoBiT luciferase. The plates were shaken for 10 minutes at room temperature and the bioluminescence read using an EnVision plate reader (PerkinElmer).
(§2) The degradation % was calculated using the following formula: % degradation=100%−100%×(LumSample−LumLC)/(LumHC−LumLC). DMSO treated cells are employed as High Control (HC) and 2 μM of a known BRM/BRG1 degrader standard treated cells are employed as Low Control (LC).

[2] = target: T2, HiBit-BRG1 fusion protein (Homo sapiens, UniProt P51532); assay: HiBiT-BRG1 cell-based degradation assay (Nano-Glo HiBiT Lytic Detection, 24 h); conditions: HeLa cells expressing HiBit-BRG1 and LgBit; for DC50: read-out: BRG1 HiBit Degradation IC50; for Dmax: HeLa, top dose 30 μM, read-out: BRG1 HiBit Degradation Maximum measured
T2 construct: expressed in transfected cells
T2 sequence (P51532 whole entry, the tested form may be a part): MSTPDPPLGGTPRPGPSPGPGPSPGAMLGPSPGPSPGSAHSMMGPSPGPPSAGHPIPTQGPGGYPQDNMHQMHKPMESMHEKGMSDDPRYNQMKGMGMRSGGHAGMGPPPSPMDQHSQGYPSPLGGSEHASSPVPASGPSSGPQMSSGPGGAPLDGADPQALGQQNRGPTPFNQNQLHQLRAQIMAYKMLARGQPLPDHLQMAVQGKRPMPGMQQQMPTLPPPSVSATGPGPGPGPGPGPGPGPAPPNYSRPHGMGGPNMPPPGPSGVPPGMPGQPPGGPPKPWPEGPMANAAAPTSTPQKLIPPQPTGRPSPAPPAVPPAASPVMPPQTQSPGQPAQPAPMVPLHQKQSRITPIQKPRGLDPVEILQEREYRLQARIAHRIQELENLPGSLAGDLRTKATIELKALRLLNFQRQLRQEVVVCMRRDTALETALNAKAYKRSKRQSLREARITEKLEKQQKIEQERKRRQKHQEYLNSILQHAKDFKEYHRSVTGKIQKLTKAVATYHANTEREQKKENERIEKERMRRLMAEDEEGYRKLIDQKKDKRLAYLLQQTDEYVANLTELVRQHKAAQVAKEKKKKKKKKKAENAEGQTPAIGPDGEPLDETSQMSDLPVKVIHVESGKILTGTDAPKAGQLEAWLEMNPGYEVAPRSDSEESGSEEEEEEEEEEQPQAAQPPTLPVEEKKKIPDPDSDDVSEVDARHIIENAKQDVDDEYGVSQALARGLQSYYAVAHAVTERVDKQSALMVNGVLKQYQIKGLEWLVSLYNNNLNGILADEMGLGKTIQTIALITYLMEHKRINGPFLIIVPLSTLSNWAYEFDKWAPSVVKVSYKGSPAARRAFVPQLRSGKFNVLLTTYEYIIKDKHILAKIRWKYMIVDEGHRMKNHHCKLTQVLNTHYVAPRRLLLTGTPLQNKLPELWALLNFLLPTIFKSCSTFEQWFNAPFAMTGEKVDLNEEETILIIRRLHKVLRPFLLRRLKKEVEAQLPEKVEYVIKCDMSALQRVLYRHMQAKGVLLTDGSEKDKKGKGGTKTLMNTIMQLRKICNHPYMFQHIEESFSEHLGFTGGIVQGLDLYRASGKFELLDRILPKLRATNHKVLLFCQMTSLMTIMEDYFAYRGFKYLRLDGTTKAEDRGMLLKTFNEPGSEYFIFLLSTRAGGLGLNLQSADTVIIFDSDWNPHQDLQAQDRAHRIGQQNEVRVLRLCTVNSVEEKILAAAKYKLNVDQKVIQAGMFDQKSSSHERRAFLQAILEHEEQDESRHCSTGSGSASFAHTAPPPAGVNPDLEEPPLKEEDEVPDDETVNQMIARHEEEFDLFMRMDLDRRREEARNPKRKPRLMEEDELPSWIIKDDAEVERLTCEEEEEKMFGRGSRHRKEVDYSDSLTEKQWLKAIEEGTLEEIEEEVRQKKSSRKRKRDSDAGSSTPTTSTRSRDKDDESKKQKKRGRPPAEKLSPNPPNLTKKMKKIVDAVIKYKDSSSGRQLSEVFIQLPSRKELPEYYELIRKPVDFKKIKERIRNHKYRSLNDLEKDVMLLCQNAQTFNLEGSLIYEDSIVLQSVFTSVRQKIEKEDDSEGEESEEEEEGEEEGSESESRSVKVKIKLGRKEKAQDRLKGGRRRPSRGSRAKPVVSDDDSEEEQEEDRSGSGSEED
Protocol: as §1, with “On day 1, cells were treated with 120 nL DMSO or 120 nL of 3-fold serially DMSO-diluted compounds (10 points in duplicate with 30 μM as final top dose). Subsequently plates were incubated for 24 h in a standard tissue culture incubator and equilibrated at room temperature for 15 minutes.” left out
For measurement of BRG1 degradation, a stable HeLa cell line expressing HiBit-BRG1 and LgBit was generated. The same protocol as above was then followed.
as §2

T1 sequence (P51531 whole entry, the tested form may be a part): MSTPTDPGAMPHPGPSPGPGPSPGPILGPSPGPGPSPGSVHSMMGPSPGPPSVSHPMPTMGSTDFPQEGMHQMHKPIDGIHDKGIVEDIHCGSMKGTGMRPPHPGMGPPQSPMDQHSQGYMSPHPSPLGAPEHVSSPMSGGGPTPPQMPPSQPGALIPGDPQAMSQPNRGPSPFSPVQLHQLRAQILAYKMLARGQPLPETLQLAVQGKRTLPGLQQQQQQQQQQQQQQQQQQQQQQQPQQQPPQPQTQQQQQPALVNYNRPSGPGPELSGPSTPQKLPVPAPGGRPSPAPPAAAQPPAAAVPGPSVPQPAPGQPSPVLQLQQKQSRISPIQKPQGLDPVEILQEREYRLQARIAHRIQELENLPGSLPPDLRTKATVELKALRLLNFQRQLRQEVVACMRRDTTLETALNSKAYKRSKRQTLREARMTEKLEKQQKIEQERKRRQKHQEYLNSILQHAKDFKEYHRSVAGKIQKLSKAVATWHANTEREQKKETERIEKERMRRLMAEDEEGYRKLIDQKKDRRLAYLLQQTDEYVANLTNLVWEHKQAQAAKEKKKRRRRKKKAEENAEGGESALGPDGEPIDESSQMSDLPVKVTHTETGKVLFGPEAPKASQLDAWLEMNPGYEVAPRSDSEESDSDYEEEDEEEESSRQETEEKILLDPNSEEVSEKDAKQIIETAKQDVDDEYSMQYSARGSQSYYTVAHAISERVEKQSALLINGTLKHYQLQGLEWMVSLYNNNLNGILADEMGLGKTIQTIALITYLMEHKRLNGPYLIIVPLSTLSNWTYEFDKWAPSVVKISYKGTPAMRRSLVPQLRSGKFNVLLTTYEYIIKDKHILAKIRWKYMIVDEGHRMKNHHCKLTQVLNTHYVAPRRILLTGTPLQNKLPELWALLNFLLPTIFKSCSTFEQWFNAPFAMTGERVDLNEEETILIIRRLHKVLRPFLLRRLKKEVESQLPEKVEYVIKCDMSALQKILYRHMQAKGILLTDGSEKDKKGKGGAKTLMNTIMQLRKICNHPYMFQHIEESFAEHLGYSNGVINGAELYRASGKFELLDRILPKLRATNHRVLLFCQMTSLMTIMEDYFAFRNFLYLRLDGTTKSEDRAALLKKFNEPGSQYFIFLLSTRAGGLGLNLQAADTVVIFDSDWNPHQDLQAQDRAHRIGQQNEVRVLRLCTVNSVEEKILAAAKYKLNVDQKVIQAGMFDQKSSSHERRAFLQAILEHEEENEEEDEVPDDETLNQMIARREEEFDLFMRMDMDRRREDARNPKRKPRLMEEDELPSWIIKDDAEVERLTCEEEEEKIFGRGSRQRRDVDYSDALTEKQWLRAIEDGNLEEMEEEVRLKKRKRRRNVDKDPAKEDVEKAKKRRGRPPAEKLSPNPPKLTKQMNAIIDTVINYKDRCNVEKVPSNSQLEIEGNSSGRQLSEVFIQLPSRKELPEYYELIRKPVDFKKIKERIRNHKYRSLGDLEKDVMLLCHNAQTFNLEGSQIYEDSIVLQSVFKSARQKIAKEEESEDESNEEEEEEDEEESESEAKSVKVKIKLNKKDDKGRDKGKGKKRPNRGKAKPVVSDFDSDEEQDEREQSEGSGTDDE

SMILES	DC50 [1] [µM]	BRM HiBit Degradation Maximum measured [1]	DC50 [2] [µM]	Dmax [2] [%]
CN(CC(=O)NCCCCCCCCNC(=O)COc1cccc2c1C(=O)N(C1CCC(=O)NC1=O)C2=O)c1cc(-c2cccc(-c3csc(NC(=O)CNC(=O)c4ccn(S(C)(=O)=O)c4)n3)c2)ccn1 (centres unmarked) [Compound 15, N-(2-((4-(3-(2-((2-((8-(2-((2-(2,6-dioxopiperidin-3-yl)-1,3-dioxoisoindolin-4-yl)oxy)acetamido)octyl)amino)-2-oxoethyl)(methyl)amino)pyridin-4-yl)phenyl)thiazol-2-yl)amino)-2-oxoethyl)-1-(methylsulfonyl)-1H-pyrrole-3-carboxamide]	> 10	C (‘C’ = Maximum degradation <50%)	> 10	< 50
CN(CC(=O)N1CCC(C2CCN(C(=O)COc3cccc4c3C(=O)N(C3CCC(=O)NC3=O)C4=O)CC2)CC1)c1cc(-c2cccc(-c3csc(NC(=O)CNC(=O)c4ccn(S(C)(=O)=O)c4)n3)c2)ccn1 (centres unmarked) [Compound 17, N-(2-((4-(3-(2-((2-(1′-(2-((2-(2,6-dioxopiperidin-3-yl)-1,3-dioxoisoindolin-4-yl)oxy)acetyl)-[4,4′-bipiperidin]-1-yl)-2-oxoethyl)(methyl)amino)pyridin-4-yl)phenyl)thiazol-2-yl)amino)-2-oxoethyl)-1-(methylsulfonyl)-1H-pyrrole-3-carboxamide]	> 10	C (‘C’ = Maximum degradation <50%)	> 10	< 50

The next lines start with the values.

DC50 [1] [µM]	BRM HiBit Degradation Maximum measured [1]	DC50 [2] [µM]	Dmax [2] [%]	SMILES
> 10	C (‘C’ = Maximum degradation <50%)	0.1 to 1	50 to 75	CS(=O)(=O)n1ccc(C(=O)NCC(=O)Nc2nc(-c3cccc(-c4ccnc(C5(C(=O)NCCCCCCCCNC(=O)COc6cccc7c6C(=O)N(C6CCC(=O)NC6=O)C7=O)CC5)c4)c3)cs2)c1 (centres unmarked) [Compound 13, N-(2-((4-(3-(2-(1-((8-(2-((2-(2,6-dioxopiperidin-3-yl)-1,3-dioxoisoindolin-4-yl)oxy)acetamido)octyl)carbamoyl)-cyclopropyl)pyridin-4-yl)phenyl)thiazol-2-yl)amino)-2-oxoethyl)-1-(methylsulfonyl)-1H-pyrrole-3-carboxamide]
> 10	C (‘C’ = Maximum degradation <50%)	> 10	< 50	CS(=O)(=O)n1ccc(C(=O)NCC(=O)Nc2nc(-c3cccc(-c4ccnc(C5(C(=O)N6CCC(C7CCN(C(=O)COc8cccc9c8C(=O)N(C8CCC(=O)NC8=O)C9=O)CC7)CC6)CC5)c4)c3)cs2)c1 (centres unmarked) [Compound 14, N-(2-((4-(3-(2-(1-(1′-(2-((2-(2,6-dioxopiperidin-3-yl)-1,3-dioxoisoindolin-4-yl)oxy)acetyl)-[4,4′-bipiperidine]-1-carbonyl)cyclopropyl)pyridin-4-yl)phenyl)thiazol-2-yl)amino)-2-oxoethyl)-1-(methylsulfonyl)-1H-pyrrole-3-carboxamide]
> 10	C (‘C’ = Maximum degradation <50%)	> 10	< 50	CN(CC(=O)NCCCCCNc1cccc2c1C(=O)N(C1CCC(=O)NC1=O)C2=O)c1cc(-c2cccc(-c3csc(NC(=O)CNC(=O)c4ccn(S(C)(=O)=O)c4)n3)c2)ccn1 (centres unmarked) [Compound 16, N-(2-((4-(3-(2-((2-((5-((2-(2,6-dioxopiperidin-3-yl)-1,3-dioxoisoindolin-4-yl)amino)pentyl)amino)-2-oxoethyl)(methyl)amino)pyridin-4-yl)phenyl)thiazol-2-yl)amino)-2-oxoethyl)-1-(methylsulfonyl)-1H-pyrrole-3-carboxamide]
